Data as given in patent US20260174748A1, “AGENT FOR ALLEVIATING CLOZAPINE-INDUCED SIALORRHEA” (National University Corporation Chiba University, priority 2022, published 2026).
Where two headings read alike, the source gives them in different places.

Tests used:
Assay type in all cases: in vivo, rat
[1] = test system: CIS model rats; experiment: Experiment 5: MK-801 in combination with NMDA receptor agonists D-serine or Glycine in CIS model rats; conditions: 3 times; for reduction in saliva amount by MK-801, compared to group B / resulting saliva amount relative to group A (control): 900 mg/kg oral, 1 hour later MK-801 0.1 mg/kg intraperitoneal; for reduction in saliva amount by MK-801, compared to group B: D-serine p<0.05, glycine p<0.01; for resulting saliva amount relative to group A (control): day 9
Experimental: (§1) Water and feed were limited from 1 hour before the saliva amount measurement.
(§2) As a method for measuring the amount of saliva, a small piece of cotton ball was placed in the mouth of the restrained rat and swabbed for 10 seconds (the saliva was absorbed into the cotton ball). This was repeated three times, and the mass change of the cotton ball was measured. The mass change was measured as the saliva amount collected over a total of 30 seconds.
Experiment 5 was performed on CIS model rats of groups A to D as follows.
• Group A (control): The solvent (5 mL/kg) was orally administered, and then 1 hour later, saline (1 mL/kg) was intraperitoneally administered. This administration was performed for a total of 3 times. • Group B: The solvent (5 mL/kg) was orally administered, and then 1 hour later, MK-801 (0.1 mg/kg) was intraperitoneally administered. This administration was performed for a total of 3 times. • Group C: D-serine (900 mg/kg) was orally administered, and then 1 hour later, MK-801 (0.1 mg/kg) was intraperitoneally administered. This administration was performed for a total of 3 times. • Group D: Glycine (900 mg/kg) was orally administered, and then 1 hour later, MK-801 (0.1 mg/kg) was intraperitoneally administered. This administration was performed for a total of 3 times.
Note that the administration was performed once in the morning and once in the afternoon on day 8 and once in the morning on day 9 for a total of 3 times. The saliva amount was measured 1 hour after the final administration.

[2] = test system: CIS model rats; conditions: group C
Experimental: as §1, §2
The dose and period of administration of the NMDA receptor antagonist dextromethorphan (DXM) were investigated using the above-described CIS model animals (CIS model rats). Experiment 1 was performed on CIS model rats of groups A to C as follows.
The saliva amount was measured before drug administration on day 14 (24 hours after drug administration up to day 13).

[3] = test system: CIS model rats; conditions: for change in saliva amount from day 7 to day 9 (1 hour after administration): total of 3 times
Experimental: as §1, §2
The dose of dextromethorphan (DXM) was changed to examine the dose-dependency of clozapine-induced sialorrhea suppression effect.
The following studies were performed on the dose-dependency of the acute phase effect of DXM using the above-described CIS model animals (CIS model rats).
Note that swabs were performed on days 5 and 6 to accustom the model animals with the saliva measurement.
• Group A: Intraperitoneal administration of saline (1 mL/kg) for a total of 3 times • Group B: Intraperitoneal administration of saline (1 mL/kg) for a total of 3 times • Group C: Intraperitoneal administration of DXM (3 mg/kg) for a total of 3 times • Group D: Intraperitoneal administration of DXM (30 mg/kg) for a total of 3 times • Group E: Intraperitoneal administration of DXM (60 mg/kg) for a total of 3 times
The agent of the above dose was administered once in the morning and once in the afternoon on day 8 and once in the morning on day 9 for a total of 3 times. The saliva amount was measured 1 hour after the final administration.

[4] = test system: CIS model rats; conditions: group B, DXM 30 mg/kg/day intraperitoneal on days 8 and 9 after clozapine 100 mg/kg/day days 1-7; p<0.01
Experimental: as §1, §2
In the above Experiment 1, the saliva amount was measured 24 hours after DXM administration. […] The following studies were performed on the acute phase effect of dextromethorphan (DXM) using the above-described CIS model animals (CIS model rats).
Swabs were conducted on a daily basis to accustom the model animals with saliva measurements.
• Group A: Intraperitoneal administration of saline (1 mL/kg) once per day • Group B: Intraperitoneal administration of DXM (30 mg/kg/day) once per day
On Day 9, the saliva amount was measured 1 hour after DXM administration.

[5] = test system: male Wister rats; experiment: Creation of CIS model animals: saliva amount after oral clozapine; conditions: for saliva amount: 7 days
Experimental: CIS model animals were created with reference to previous studies (Ishikawa S, J. Pharmacol. Exp. Ther., 2020, November; 375(2): 376-384).
As experimental animals, 6 to 8-week-old male Wister rats (made by CLEA Japan, Inc.) were used. The animals were freely ingested and fed on water and normal feed except for the period of time from 1 hour before the saliva amount measurement described below to the measurement.
as §1, §2

[6] = test system: CIS model rats; experiment: Experiment 4: acute phase effect of MK-801 and SA4503 on clozapine-induced sialorrhea; conditions: total of 3 times, 1 hour after final administration
Experimental: as §1, §2
The alleviating effect (acute phase effect) on clozapine-induced sialorrhea by a selective NMDA receptor antagonist MK-801 and a selective sigma-1 receptor agonist SA4503 were investigated. Experiment 4 was performed on CIS model rats of groups A to C as follows.
• Group A (control): Intraperitoneal administration of saline (1 mL/kg) for a total of 3 times • Group B: Intraperitoneal administration of MK-801 (0.1 mg/kg) for a total of 3 times • Group C: Intraperitoneal administration of SA4503 (1 mg/kg) for a total of 3 times
Note that the intraperitoneal administration was performed once in the morning and once in the afternoon on day 8 and once in the morning on day 9 for a total of 3 times. The saliva amount was measured 1 hour after the final administration.

## NCC(=O)O [glycine, Glycine]
[1]
  reduction in saliva amount by MK-801, compared to group B: significantly antagonized
  resulting saliva amount relative to group A (control): same level as that in group A

## COc1ccc2c(c1)[C@]13CCCC[C@@H]1[C@H](C2)N(C)CC3 [dextromethorphan]
[2]; DXM 30 mg/kg/day intraperitoneal + clozapine, compared to groups A and B, p<0.01
  change in saliva amount on day 14 based on the saliva amount on day 7: significantly reduced
[2]; DXM 30 mg/kg/day intraperitoneal on days 8 to 13 in addition to clozapine 100 mg/kg/day, 24 hours after administration
  saliva amount on day 14: reduction of saliva amount was observed
[3]; DXM 60 mg/kg compared to DXM 3 mg/kg, intraperitoneal, 3 times, p<0.01
  change in saliva amount from day 7 to day 9, group E compared to group C: significantly reduced
[3]; DXM 3, 30, 60 mg/kg intraperitoneal
  dose-dependency of clozapine-induced sialorrhea suppression effect: dose-dependent
[3]; group D, DXM 30 mg/kg intraperitoneal, p<0.05
  change in saliva amount from day 7 to day 9 (1 hour after administration): significantly reduced
[3]; group E, DXM 60 mg/kg intraperitoneal, p<0.001
  change in saliva amount from day 7 to day 9 (1 hour after administration): significantly reduced
[4]
  saliva amount at 1 hour after administration on day 9: significantly reduced

## CN1CCN(C2=Nc3cc(Cl)ccc3Nc3ccccc32)CC1 [clozapine]
[5]; 25 mg/kg/day orally once per day
  saliva amount: did not increase
[5]; 50 mg/kg/day orally once per day, from day 3 of administration
  saliva amount: increased significantly
[5]; 100 mg/kg/day orally once per day, from day 3 of administration
  saliva amount: increased significantly
[5]; single oral dose of 25, 50 or 100 mg/kg/day, measured 4 times per day, every 6 hours from 1 hour after administration
  amount of saliva secretion: no increase in the amount of saliva secretion was observed

## COc1ccc(CCN2CCN(CCCc3ccccc3)CC2)cc1OC [SA4503]
[6]; group C, SA4503 1 mg/kg intraperitoneal, p<0.05
  saliva amount on day 9 compared to group A (control): significantly reduced

## N[C@H](CO)C(=O)O [D-serine]
[1]
  reduction in saliva amount by MK-801, compared to group B: significantly antagonized
  resulting saliva amount relative to group A (control): same level as that in group A

## C[C@]12N[C@H](Cc3ccccc31)c1ccccc12 [MK-801, dizocilpine (MK-801)]
[1]; group B, solvent oral then MK-801 0.1 mg/kg intraperitoneal, p<0.05
  saliva amount on day 9 compared to group A (control): significantly reduced
[6]; group B, MK-801 0.1 mg/kg intraperitoneal, p<0.01
  saliva amount on day 9 compared to group A (control): significantly reduced
